Experimental data: ChEMBL document CHEMBL4814003, “Novel dual-mode antitumor chlorin-based derivatives as potent photosensitizers and histone deacetylase inhibitors for photodynamic therapy and chemotherapy” (Eur J Med Chem, 2021)
Active and inactive are the calls of the source. The rule behind the calls is not given here.

Columns and labels:
[1] = molecular target: Histone deacetylase 3 (Homo sapiens, UniProt O15379); assay: Inhibition of human recombinant HDAC3 using Ac-Leu-Gly-Lys(Ac)-AMC as substrate by measuring fluorescence intensity incubated for 30 mins by microplate reader assay
Chain of Histone deacetylase 3 (O15379 whole entry): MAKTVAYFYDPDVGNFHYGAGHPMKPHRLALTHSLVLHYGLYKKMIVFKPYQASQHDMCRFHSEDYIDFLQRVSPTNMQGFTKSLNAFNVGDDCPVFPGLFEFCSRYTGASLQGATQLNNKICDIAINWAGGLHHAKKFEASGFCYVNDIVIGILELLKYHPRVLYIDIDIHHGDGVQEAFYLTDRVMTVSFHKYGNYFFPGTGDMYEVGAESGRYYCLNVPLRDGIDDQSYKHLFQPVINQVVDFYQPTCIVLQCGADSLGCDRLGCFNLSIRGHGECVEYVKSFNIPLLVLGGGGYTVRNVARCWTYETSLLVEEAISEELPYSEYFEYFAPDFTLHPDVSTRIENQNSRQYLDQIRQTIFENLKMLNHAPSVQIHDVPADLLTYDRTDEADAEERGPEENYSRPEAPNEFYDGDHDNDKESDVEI

[2] = tested on: A549; assay: Induction of apoptosis in human A549 cells assessed as apoptotic cells at 0.1 uM in presence of light irradiation incubated for 48 hrs by annexin V-FITC staining based flow cytometry; type: functional
[3] = tested on: A549; assay: Induction of reactive oxygen species generation in human A549 cells assessed as mean count value at 0.01 uM incubated for 24 hrs by DCFH-DA staining based fluorescence microscopy assay; type: functional
[4] = Drug uptake in human A549 cells assessed as compound localization in mitochondria at 0.1 uM measured after 24 hrs by Mitotracker Green FM based laser confocal microscopy; type: ADME; settings: a549, 24 h
[5] = molecular target: T1, Histone deacetylase 1 (Homo sapiens, UniProt Q13547); assay: Inhibition of human recombinant HDAC1 using Ac-Leu-Gly-Lys(Ac)-AMC as substrate by measuring fluorescence intensity incubated for 30 mins by microplate reader assay
T1 sequence (Q13547 whole entry): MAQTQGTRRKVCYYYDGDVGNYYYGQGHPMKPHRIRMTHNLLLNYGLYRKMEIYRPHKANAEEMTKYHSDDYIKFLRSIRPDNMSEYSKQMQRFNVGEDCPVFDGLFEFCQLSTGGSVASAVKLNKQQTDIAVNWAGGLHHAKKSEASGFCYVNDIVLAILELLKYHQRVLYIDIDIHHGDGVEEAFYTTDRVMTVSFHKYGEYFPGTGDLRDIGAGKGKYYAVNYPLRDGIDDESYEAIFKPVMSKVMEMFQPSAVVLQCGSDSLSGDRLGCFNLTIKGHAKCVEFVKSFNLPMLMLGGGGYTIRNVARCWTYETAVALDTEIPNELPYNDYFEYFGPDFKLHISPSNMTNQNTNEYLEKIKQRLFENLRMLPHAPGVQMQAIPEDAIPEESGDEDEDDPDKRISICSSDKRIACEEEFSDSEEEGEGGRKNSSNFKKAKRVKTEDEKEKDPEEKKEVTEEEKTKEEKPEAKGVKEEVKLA

[6] = Drug uptake in human A549 cells assessed as compound localization in lysosome at 0.1 uM measured after 24 hrs by Lysotracker Green DND-26 dye based laser confocal microscopy; type: ADME, subcellular; settings: a549, 24 h
[7] = tested on: A549; assay: Induction of reactive oxygen species generation in human A549 cells assessed as mean count value at 0.05 uM incubated for 24 hrs by DCFH-DA staining based fluorescence microscopy assay; type: functional
[8] = tested on: A549; assay: Phototoxicity in human A549 cells assessed as reduction in cell viability irradiated 10 j/cm2 for 24 hrs followed by incubated for 24 hrs by CCK8 assay; type: functional, cell-based; settings: A549, light or radiation study
[9] = tested on: A549; assay: Dark toxicity in human A549 cells assessed as reduction in cell viability incubated under dark for 48 hrs measured after 48 hrs by CCK8 assay; type: functional, cell-based; settings: A549, 48 h
[10] = tested on: A549; assay: Induction of apoptosis in human A549 cells assessed as necrotic cells at 0.5 uM in absence of light irradiation incubated for 48 hrs by annexin V-FITC staining based flow cytometry; type: functional
[11] = molecular target: T1, Histone deacetylase 1; assay: Inhibition of human recombinant HDAC1 in human A 549 cells assessed as effect on acetyl-H4 expression measured after 24 hrs by western blot analysis; type: cell-based; settings: A549, dose microM <=2, time 24.0 hrs
[12] = molecular target: T1, Histone deacetylase 1; assay: Inhibition of human recombinant HDAC1 in human A 549 cells assessed as effect on acetyl-H3 expression upto 2 uM measured after 24 hrs by western blot analysis; type: cell-based; settings: A549, dose microM <=2, time 24.0 hrs
[13] = Drug uptake in human A549 cells assessed as compound localization in nucleus at 0.1 uM measured after 24 hrs by laser confocal microscopy; type: ADME, subcellular; settings: a549, 24 h
[14] = molecular target: T2, Histone deacetylase 8 (Homo sapiens, UniProt Q9BY41); assay: Inhibition of human recombinant HDAC8 using Ac-Leu-Gly-Lys(Ac)-AMC as substrate by measuring fluorescence intensity incubated for 30 mins by microplate reader assay
T2 sequence (Q9BY41 whole entry): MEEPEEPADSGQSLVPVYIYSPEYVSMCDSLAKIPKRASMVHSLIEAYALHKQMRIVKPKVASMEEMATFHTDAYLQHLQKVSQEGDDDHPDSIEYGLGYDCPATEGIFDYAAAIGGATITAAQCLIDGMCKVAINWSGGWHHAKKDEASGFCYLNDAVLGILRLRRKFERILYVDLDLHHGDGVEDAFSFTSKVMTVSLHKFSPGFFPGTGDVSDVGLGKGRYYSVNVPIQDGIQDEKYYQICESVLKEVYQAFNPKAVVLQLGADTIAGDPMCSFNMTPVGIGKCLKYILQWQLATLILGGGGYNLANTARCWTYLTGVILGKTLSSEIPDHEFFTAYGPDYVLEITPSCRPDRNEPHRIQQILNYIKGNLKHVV

For `C=Cc1c(C)c2cc3nc(c(C(=O)OC)c4[nH]c(cc5nc(cc1[nH]2)C(C)=C5CC)c(C)c4C(=O)OC)[C@@H](CCC(=O)Nc1ccc(C(=O)Nc2ccccc2N)cc1)[C@@H]3C`, the IC50 [1] was 72.1 µM, the Activity [2] was 90.77% and the Activity [3] was 770.81. For the same compound, the Drug uptake [4] was “Active”, the IC50 [5] was 27 µM and the Drug uptake [6] was “Active”. For the same compound, the Activity [7] was 1760.9, the IC50 [8] was 0.06 µM and the IC50 [9] was 0.3 µM. For the same compound, the Activity [10] was 45.22%, the inhibition [11] was “Dose-Dependent Effect” and the inhibition [12] was “inactive”. For the same compound, the Drug uptake [13] was “Not Active” and the IC50 [14] was over 100 µM.
